Test results taken from patent US8436047B2, “Preventive or ameliorating agent for liver disease involving hepatopathy” (Suntory Holdings Limited, priority 2004, dated 2013).

Tested on: hepatopathy induced by galactosamine (GalN/LPS)
Experiment: Evaluation of 5,8,11-eicosatrienoic acid ethyl ester in an animal model of hepatopathy: serum GOT after GalN/LPS
Type: in vivo
Conditions: male ddY mice, 10 mg/kg orally for one week, then GalN 800 mg/kg / LPS 25 μg/kg i.p., blood six hours after; control group 1024±94 IU/L
Description: Four-week-old male ddY mice were orally given 10 mg/kg of 5,8,11-eicosatrienoic acid ethyl ester (mead acid) purified from the lipid SUNTGM17 prepared in Reference Example 1 for one week, and then they were intraperitoneally given physiological saline in which D-galactosamine and lipopolysaccharide were dissolved to 800 mg/kg and 25 μg/kg and mixed (GalN/LPS). Six hours after the GalN/LPS administration, blood was drawn, serum was separated, and GPT and GOT activities in the serum were determined, which confirmed that the GOT activity was 1024±94 IU/L in the control diet group, whereas it was 413±37 IU/L in the mead acid diet group, indicating a significant suppression of hepatopathy.

For `CCCCCCCCC=CCC=CCC=CCCCC(=O)OCC` [5,8,11-eicosatrienoic acid ethyl ester], the “GOT activity in the serum” value was 413±37 IU/L.
